Results on six molecules are retold here after paper PMC10802969, “Host-defense piscidin peptides as antibiotic adjuvants against Clostridioides difficile” (PLOS ONE, 2024).

Values joined by “and” are separate entries in the source; they are usually repeats but may differ in a detail not shown here. Equal values may be shown once. Read-outs that look alike come from different tables or passages of the source. A value given as a limit tells only on which side of the number the result lay.

Assay [1] has as its system C. difficile R20291. The note with it: previously observed / recorded values, ref 76 (vancomycin, fidaxomicin), ref 10 (metronidazole), cited from earlier work.
Assay [2] concerns C. difficile R20291 vegetative cells. As to the kind of experiment: Enumeration of colony forming units after overnight exposure. The note with it: sub-lethal piscidins (2 μM p1/p1-Cu2+ or 4 μM p3/p3-Cu2+) with sub-lethal antibiotic, 16 h exposure. In kind it is cell-based, Clostridioides difficile. On the procedure: 200 μL samples of BHIS broth containing the indicated concentrations of antibiotics and/or piscidins were inoculated using a 1:10 ratio, in 96 well plates, with exponentially growing C. difficile R20291 cells and incubated for 16 h at 37°C. Samples were spread as duplicates on BHIS agar plates containing 20 μg/mL erythromycin. These plates were incubated anaerobically at 37°C for 48 h before the viable colonies were counted.

Assay [3] has as its system C. difficile R20291. The assay is described as follows: Growth inhibition assay (16 h overnight growth, culture density at 630 nm). Format: cell-based, Clostridioides difficile. The note with it: for Concentration of antibiotic necessary to suppress 16-hour growth of C. difficile: >=90% inhibition of overnight growth vs untreated, R20291, anaerobic 37°C, n>=3. On the procedure:
Two-fold serial dilutions of BHIS media containing the indicated concentrations of antibiotics were prepared in sterile 96 well plates (ThermoFisher Scientific). […] Inoculated plates were incubated anaerobically at 37°C for 16 h and then removed from the chamber. […] All experiments were performed with a minimum of three samples, and the means and standard deviations were reported. To analyze the effects of the antibiotics, samples containing peptides and antibiotics were compared to samples containing only peptides by two-way analysis of variance using GraphPad Prism 6.

Assay [4] concerns C. difficile cells. The assay is described as follows: Transmission electron microscopy of cell envelope damage and lysis. In kind it is cell-based, Clostridioides difficile. As to conditions: 5 min treatment, TEM. On the procedure: Overnight cultures were prepared by inoculating individual colonies into 3 mL BHIS broth and grown for 14–16 h at 37°C in the anaerobic chamber. The overnight cultures were diluted 1:20 into 4 mL BHIS broth and the cultures were grown until they reached exponential phase (OD600 0.4–0.6). […] After treatment, the samples were transferred to 2 mL Eppendorf tubes and centrifuged for 2 minutes to collect the pellets. The pellets were individually suspended in 1 mL of 1X phosphate-buffered saline solution with 4% paraformaldehyde, prepared as described in [75]. The samples were fixed in the anaerobic chamber for 45 min. After fixation, the eppendorf tubes were removed from the chamber and the exteriors were sterilized with SporGon (Thomas Scientific), 10% bleach, and 70% ethanol (VWR). Samples were incubated on 200 mesh formvar-coated copper grids (Electron Microscopy Sciences, Hatfield, PA) that were glow-discharged. Grids were washed with water, incubated with 2% uranyl acetate, washed with water, dried overnight at room temperature, and imaged using a JEM-2100F TEM (JEOL, Akishima, Japan) at a voltage of 200 kV and using a Gatan OneView camera. The percentage of lysed cells in each condition and the standard error of each condition were compared using the Wilson confidence interval.

In assay [5] the test system is C. difficile R20291 spores. The assay is described as follows: Spore viability assay. In kind it is cell-based, Clostridioides difficile. The note with it: 16 h, 37°C; for Viable colonies from spores after peptide exposure (spore data): spores in PBS, plated with 0.1% taurocholic acid, individual samples, S6 File; for Viability of dormant C. difficile spores: peptide at or above the concentrations necessary to kill vegetative cells (4/8 μM p1, 8/15 μM p3). On the procedure:
To isolate spores, exponentially growing C. difficile R20291 was inoculated 1:10 into 50 mL of BHIS broth and grown anaerobically at 37°C for 16 h. This culture was removed from anaerobic chamber and ethanol was added to a final concentration of 50%. The sample was rocked aerobically for 6 h. The absence of viable vegetative cells was confirmed by spreading volumes up to 1 mL on BHIS plates and incubating anaerobically for 48 h. […] Peptides were tested at final concentrations corresponding to 1X and 2X their previously observed inhibitory concentrations. All the samples were incubated in the chamber at 37°C for 16 hrs. After incubation, 50 μL aliquots of each sample were plated in triplicate on BHIS plates containing 20 μg/mL erythromycin and 0.1% taurocholic acid agar plates to induce germination. An additional 50 μL aliquot was plated on BHIS containing 20 μg/mL erythromycin to ensure that there was no contamination with vegetative cells. The plates were incubated in the chamber at 37°C for 48 h before the viable colonies were counted.

In assay [6] the test system is C. difficile cells. The assay is described as follows: Propidium iodide uptake assay (live cell microscopy). In kind it is cell-based, Clostridioides difficile. As to conditions: 20 μg/mL PI; 4 μM p1/p1Cu, 8 μM p3/p3Cu; apo 30 min, metalated 10 min; anaerobic 37°C; qualitative microscopy. On the procedure: Samples containing apo-peptides and metalated peptides were incubated for 30 min and 10 min, respectively. After incubation, cells were centrifuged at 704 rfc for 5 minutes and resuspended in 1.5 mL fresh BHIS broth. Negative controls were incubated with PI for 10 or 30 minutes but contained no piscidin. Positive controls were removed from the anaerobic chamber and incubated aerobically for 1 h at room temperature with propidium iodine and 50% ethanol. Within the anaerobic chamber, samples were injected into rose chambers for microscopic imaging as detailed in [53]. The rose chambers were removed from the anaerobic chamber and the outsides were sterilized with 70% ethanol and 10% bleach. […] Samples were imaged with time-lapse differential interference contrast (DIC) microscopy and propidium iodide was monitored at excitation/emission wavelengths of 535/617 nm.

Assay [7] deals with C. difficile. The note with it: in vitro, anaerobic; cited from earlier work. An excerpt: These antibiotics target different cellular components, providing us with a way to identify whether increased efficacy relies on specific mechanistic aspects of the antibiotics and peptides. We tested this by inoculating C. difficile R20291 into media co ...
The mark [8] stands for this setting: with 2 μM p1 and 4 μM p3 combined.
[9] abbreviates: 0.5 μg/mL vancomycin, 4 μM p1-Cu2+, or both.

For the molecule `O=C(O)c1cn(C2CC2)c2cc(N3CCNCC3)c(F)cc2c1=O` [Ciprofloxacin, ciprofloxacin], in assay [1], the “Concentration of antibiotic necessary to suppress 16-hour growth of C. difficile, no peptide” value (“Concentration … no peptide” for short) is > 128 µg/mL.

For `CCc1c(Cl)c(O)c(Cl)c(O)c1C(=O)O[C@H]1[C@H](O)[C@H](OC)[C@H](OC/C2=C\C=C\C[C@H](O)/C(C)=C/[C@H](CC)[C@@H](O[C@@H]3OC(C)(C)[C@@H](OC(=O)C(C)C)[C@H](O)[C@@H]3O)/C(C)=C/C(C)=C/C[C@@H]([C@@H](C)O)OC2=O)O[C@@H]1C` [Fidaxomicin, fidaxomicin], in assay [1], the “Concentration … no peptide” value is 0.256 µg/mL. In addition, the “Number of viable cells after co-treatment” value (“Number of viable cells” below) in assay [2] is listed as “further reduced the number of viable cells”. Moreover, the “Fold improvement of effective antibiotic concentration” value is 20 fold in assay [3] (with 2 μM p1-Cu2+ vs no peptide); 40 fold in assay [3] (with 2 μM p1 and 4 μM p3 combined vs no peptide); 5 fold in assay [3] (with 2 μM p1 vs no peptide). For the same molecule, the “Concentration of antibiotic necessary to suppress 16-hour growth of C. difficile” value is 0.0500 µg/mL in assay [3] (with 2 μM p1); 0.05 µg/mL in assay [3] (with 2 μM p1, listed as fidaxomicin); 0.0125 µg/mL in assay [3] (with 2 μM p1Cu); 0.00625 µg/mL in assay [3] (setting [8]); 0.050 µg/mL in assay [3] (with 4 μM p3); >0.100 µg/mL in assay [3] (with 4 μM p3Cu). Also, in assay [3] (with 4 μM p3Cu, listed as fidaxomicin), the “Concentration of antibiotic necessary to suppress 16-hour growth of C. difficile” value is > 0.1 µg/mL.

For the molecule `Cc1ncc([N+](=O)[O-])n1CCO` [Metronidazole, metronidazole], the “Concentration … no peptide” value in assay [1] (listed as metronidazole) is 2 µg/mL; in assay [1], 2.000 µg/mL. The “Number of viable cells” value in assay [2] was “further reduced the number of viable cells”. Besides, the “Concentration of antibiotic necessary to suppress 16-hour growth of C. difficile” value in assay [3] (with 2 μM p1) was determined as 0.500 µg/mL; in assay [3] (with 2 μM p1, listed as metronidazole) it was 0.5 µg/mL; in assay [3] (with 2 μM p1Cu) it was 1.0000 µg/mL; in assay [3] (with 2 μM p1Cu, listed as metronidazole), 1 µg/mL; in assay [3] (with 4 μM p3), 0.0625 µg/mL; in assay [3] (with 4 μM p3Cu), 1.000 µg/mL. Also, in assay [3] (with 4 μM p3Cu, listed as metronidazole), the “Concentration of antibiotic necessary to suppress 16-hour growth of C. difficile” value was found to be 1 µg/mL.

`CN[C@H](CC(C)C)C(=O)N[C@H]1C(=O)N[C@@H](CC(N)=O)C(=O)N[C@H]2C(=O)N[C@H]3C(=O)N[C@H](C(=O)N[C@H](C(=O)O)c4cc(O)cc(O)c4-c4cc3ccc4O)[C@H](O)c3ccc(c(Cl)c3)Oc3cc2cc(c3O[C@@H]2O[C@H](CO)[C@@H](O)[C@H](O)[C@H]2O[C@H]2C[C@](C)(N)[C@H](O)[C@H](C)O2)Oc2ccc(cc2Cl)[C@H]1O` [Vancomycin, vancomycin]: the entries for the “Concentration … no peptide” value in assay [1] (listed as vancomycin) and in assay [1] were 4 µg/mL and 4.000 µg/mL, respectively. Also, the “Number of viable cells” value in assay [2] is listed as “further reduced the number of viable cells”. Also, the “Number of cells with cytoplasm / membrane leakage” value in assay [4] (0.5 μg/mL vancomycin (22 cells observed) or 4 μM p1-Cu2+ (14 cells observed)) stood at 8. Moreover, the “Number of lysed cells (severe to complete cell lysis)” value in assay [4] (0.5 μg/mL vancomycin (of 22 cells), 4 μM p1-Cu2+ (of 14), both (of 19)) was found to be 0. The “Proportion of lysed cells ("percentage")” value in assay [4] (setting [9]) turned out to be 0. In assay [4] (setting [9]), the “Wilson estimate of proportion of lysed cells” value was 0.07692. Moreover, the “Concentration of antibiotic necessary to suppress 16-hour growth of C. difficile” value in assay [3] (with 2 μM p1) is 2.000 µg/mL; in assay [3] (with 2 μM p1, listed as vancomycin), 2 µg/mL; in assay [3] (with 2 μM p1Cu), 0.0625 µg/mL; in assay [3] (setting [8]), 0.125 µg/mL; in assay [3] (with 4 μM p3) it was 0.500 µg/mL; in assay [3] (with 4 μM p3, listed as vancomycin), 0.5 µg/mL. In addition, the “Concentration of antibiotic necessary to suppress 16-hour growth of C. difficile” value came to 0.250 µg/mL in assay [3] (with 4 μM p3Cu) and 0.25 µg/mL in assay [3] (with 4 μM p3Cu, listed as vancomycin).

Consider Piscidin 1 [p1], for which the “Viable colonies from spores after peptide exposure (spore data)” value in assay [5] (1X MIC (4 μM p1, 8 μM p3)) is 10100 and 12400 and 9560 and 8440 and 7400 and 9040; in assay [5] (2X MIC (8 μM p1, 15 μM p3)), 9320 and 11000 and 9200 and 8240 and 10000 and 9120. Besides, the “Viability of dormant C. difficile spores” value in assay [5] is recorded as “do not affect the viability”. Further, in assay [6], the “Propidium iodide uptake by live C. difficile cells” value was “did not visibly increase PI uptake”. Moreover, the “Concentration that inhibits growth and kills exponentially growing C. difficile” value in assay [7] is 4 µM.

On to Piscidin 3 [p3], for which the “Viable colonies from spores after peptide exposure (spore data)” value in assay [5] (1X MIC (4 μM p1, 8 μM p3)) was 8760 and 8840 and 10100 and 7960 and 8080 and 8480; in assay [5] (2X MIC (8 μM p1, 15 μM p3)), 8120 and 7200 and 9000 and 8280 and 10200 and 11400. For the same molecule, in assay [5], the “Viability of dormant C. difficile spores” value was “do not affect the viability”. In addition, the “Propidium iodide uptake by live C. difficile cells” value in assay [6] was “did not visibly increase PI uptake”. Also, the “Concentration that inhibits growth and kills exponentially growing C. difficile” value in assay [7] was 8 µM.
